We go through three molecules from patent US20240132521A1, “COMPOUNDS AND METHODS FOR MODULATING HER2” (Iambic Therapeutics, Inc., priority 2022, published 2024).

The target in one assay is T1, wtERBB2 (Her2 WT) (Homo sapiens, UniProt P04626).
T1 construct: purchased Reaction Biology Kin-21-497
Put plainly: HotSpot radiometric kinase activity assay, wtERBB2. Conditions: biochemical activity, 30 nM wtERBB2, 10 μM 33P-ATP, 2 hours. As for the experimental part: (§1) The purpose of the wtERBB2, ERBB2-A775_G776insYVMA (ERBB2YVMA), wtEGFR biochemical assay was to evaluate the inhibition (% inhibition and IC50 values) of the small molecule inhibitors by using the “HotSpot” radiometric kinase activity assay. HotSpot assays monitor the production of kinase substrate by the radioactive gamma phosphate of adenosine triphosphate (33P-ATP) during biochemical reactions. HotSpot assays was performed in steps upon completion of the kinase reaction: deposition of a reaction mixture aliquot onto P81 ion exchange paper, extensive washing of the aforementioned P81 paper using phosphoric acid to remove unbound radiolabeled 33P-ATP from the P81 paper, and finally visualization and quantification of the dried P81 paper utilizing a phosphoimager. […] Typical reaction solutions (10 μL, final reaction volume) contained the following buffer conditions: 20 mM Hepes (pH 7.5), 10 mM MgCl2, 1 mM EGTA, 0.01% Brij35, 0.02 mg/mL BSA, 0.1 mM Na3VO4, 2 mM DTT, 1% DMSO. The assay was primed by preparing a fresh 0.2 mg/mL solution of pEY (Sigma Cat: P7244) substrate in the reaction buffer and supplementing that solution with […] of MnCl2 as substrate cofactor (Sigma Cat: M9522). The kinase of interest was then added to the solution at the appropriate concentration (30 nM wtERBB2 from, or 20 nM ERBB2YVMA, or 4 nM wtEGFR) and gently mixed prior to delivery of compound in 100% DMSO by acoustic dispensing (Beckman Echo550). Compound, Kinase, and substrate were allowed to incubate for 20 min at room temperature prior to the initiation of the reaction by addition of 33P-ATP (PerkinElmer Cat: NEG602, final conc 10 μM). […] IC50 determinations were made from a plot of kinase activity as a function of inhibitor concentration fit to the 4-parameter IC50 equation with the enzyme concentration held constant using GraphPad Prism (San Diego).

The target in another assay is BaF3_EGFRWT cells (Homo sapiens, UniProt P00533). Put plainly: Cell growth inhibition assay (CellTiterGlo), BaF3_EGFRWT. It counts as cell-based. Conditions: 3-day treatment, CellTiterGlo, read-out: Cell growth inhibition activity, EGFR WT. (ATP-based viability assays read luminescence as a measure of living cells.)
The next assay deals with BaF3_HER2WT cells (Homo sapiens, UniProt P04626). Put plainly: Cell growth inhibition assay (CellTiterGlo), BaF3_HER2WT. It counts as cell-based. Conditions: 3-day treatment, CellTiterGlo, read-out: Cell growth inhibition activity, HER2 WT.
Sequence of BaF3_HER2WT cells (P04626 whole entry, change not shown): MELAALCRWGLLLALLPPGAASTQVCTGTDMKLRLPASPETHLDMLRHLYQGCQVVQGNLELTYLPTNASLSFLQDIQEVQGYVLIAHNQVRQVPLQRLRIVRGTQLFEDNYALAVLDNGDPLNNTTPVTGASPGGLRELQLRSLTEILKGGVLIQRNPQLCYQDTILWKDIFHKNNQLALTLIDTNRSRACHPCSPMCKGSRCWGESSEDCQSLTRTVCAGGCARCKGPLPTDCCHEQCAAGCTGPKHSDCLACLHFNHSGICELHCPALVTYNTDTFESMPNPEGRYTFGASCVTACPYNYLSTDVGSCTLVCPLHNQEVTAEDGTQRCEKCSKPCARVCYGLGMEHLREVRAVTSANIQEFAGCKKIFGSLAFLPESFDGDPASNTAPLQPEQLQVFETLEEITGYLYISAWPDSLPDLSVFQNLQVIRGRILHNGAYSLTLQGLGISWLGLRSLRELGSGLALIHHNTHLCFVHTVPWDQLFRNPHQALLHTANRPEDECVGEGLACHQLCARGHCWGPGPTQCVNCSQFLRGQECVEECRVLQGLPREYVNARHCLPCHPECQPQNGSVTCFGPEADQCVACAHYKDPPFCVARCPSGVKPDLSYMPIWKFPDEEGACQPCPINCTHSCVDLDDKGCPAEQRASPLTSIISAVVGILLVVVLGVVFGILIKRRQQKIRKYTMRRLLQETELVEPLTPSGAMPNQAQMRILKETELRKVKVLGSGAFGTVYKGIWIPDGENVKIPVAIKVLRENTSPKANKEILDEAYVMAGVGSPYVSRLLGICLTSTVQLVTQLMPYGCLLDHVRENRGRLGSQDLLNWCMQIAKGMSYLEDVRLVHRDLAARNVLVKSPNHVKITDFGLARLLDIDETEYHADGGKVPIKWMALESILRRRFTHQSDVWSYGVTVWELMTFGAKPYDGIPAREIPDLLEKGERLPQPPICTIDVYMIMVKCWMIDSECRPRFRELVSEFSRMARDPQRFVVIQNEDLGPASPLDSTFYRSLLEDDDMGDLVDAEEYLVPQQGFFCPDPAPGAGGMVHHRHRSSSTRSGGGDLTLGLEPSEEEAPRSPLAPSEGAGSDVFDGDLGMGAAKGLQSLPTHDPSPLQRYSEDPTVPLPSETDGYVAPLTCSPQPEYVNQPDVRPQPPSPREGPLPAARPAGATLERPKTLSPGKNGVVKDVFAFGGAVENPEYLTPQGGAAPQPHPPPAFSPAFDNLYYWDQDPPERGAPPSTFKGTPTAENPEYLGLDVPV
For a further assay, the target named is T2, wtEGFR (Homo sapiens, UniProt P00533).
T2 construct: purchased Invitrogen PR7295B
T2 sequence (P00533 25-1210): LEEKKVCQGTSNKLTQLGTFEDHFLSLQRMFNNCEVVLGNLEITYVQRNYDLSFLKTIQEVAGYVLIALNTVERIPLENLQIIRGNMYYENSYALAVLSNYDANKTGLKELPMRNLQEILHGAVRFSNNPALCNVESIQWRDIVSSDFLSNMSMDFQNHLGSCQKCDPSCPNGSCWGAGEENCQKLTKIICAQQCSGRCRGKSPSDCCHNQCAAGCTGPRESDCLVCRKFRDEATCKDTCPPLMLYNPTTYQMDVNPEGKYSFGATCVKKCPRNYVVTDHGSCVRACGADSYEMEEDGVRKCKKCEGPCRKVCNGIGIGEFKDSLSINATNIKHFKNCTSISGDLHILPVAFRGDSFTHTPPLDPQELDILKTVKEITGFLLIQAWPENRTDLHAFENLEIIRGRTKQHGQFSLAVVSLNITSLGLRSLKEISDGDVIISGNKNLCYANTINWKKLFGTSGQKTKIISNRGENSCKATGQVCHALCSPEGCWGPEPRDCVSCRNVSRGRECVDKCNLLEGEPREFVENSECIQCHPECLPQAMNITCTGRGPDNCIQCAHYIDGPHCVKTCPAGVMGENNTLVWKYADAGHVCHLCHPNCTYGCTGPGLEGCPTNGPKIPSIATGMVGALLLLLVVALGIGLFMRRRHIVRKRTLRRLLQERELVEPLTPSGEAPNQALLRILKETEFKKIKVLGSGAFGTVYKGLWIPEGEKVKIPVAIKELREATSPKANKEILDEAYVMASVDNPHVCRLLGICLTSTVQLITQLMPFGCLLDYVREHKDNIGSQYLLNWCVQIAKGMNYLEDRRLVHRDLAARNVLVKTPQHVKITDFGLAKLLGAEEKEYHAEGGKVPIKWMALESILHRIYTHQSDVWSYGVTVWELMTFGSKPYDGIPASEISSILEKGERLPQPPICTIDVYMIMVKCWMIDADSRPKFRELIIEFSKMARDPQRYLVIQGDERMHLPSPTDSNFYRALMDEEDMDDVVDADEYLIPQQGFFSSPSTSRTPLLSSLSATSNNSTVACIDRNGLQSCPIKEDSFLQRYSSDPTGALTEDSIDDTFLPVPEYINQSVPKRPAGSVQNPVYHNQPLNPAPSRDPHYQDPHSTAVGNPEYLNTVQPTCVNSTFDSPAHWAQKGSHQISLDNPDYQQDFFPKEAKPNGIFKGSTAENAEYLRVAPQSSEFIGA
Put plainly: HotSpot radiometric kinase activity assay, wtEGFR. Conditions: biochemical activity, 4 nM wtEGFR, 10 μM 33P-ATP, 2 hours, read-out: EGFR WT IC50. As for the experimental part: as §1

Another assay has as its target BaF3_HER2YVMA cells (Homo sapiens, UniProt P04626, DUP772-775, cells depend on it). Put plainly: Cell growth inhibition assay (CellTiterGlo), BaF3_HER2YVMA. The class given is cell-based. Conditions: 3-day treatment, CellTiterGlo, read-out: Cell growth inhibition activity, HER2 - YVMA.
The target in assay [1] is T3, ERBB2-A775_G776insYVMA (ERBB2YVMA) (Homo sapiens, UniProt P04626, INS775YVMA).
T3 construct: purchased SignalChem E27-13BG
T3 sequence (P04626 with tags, fused parts or gaps INS775YVMA limits assumed): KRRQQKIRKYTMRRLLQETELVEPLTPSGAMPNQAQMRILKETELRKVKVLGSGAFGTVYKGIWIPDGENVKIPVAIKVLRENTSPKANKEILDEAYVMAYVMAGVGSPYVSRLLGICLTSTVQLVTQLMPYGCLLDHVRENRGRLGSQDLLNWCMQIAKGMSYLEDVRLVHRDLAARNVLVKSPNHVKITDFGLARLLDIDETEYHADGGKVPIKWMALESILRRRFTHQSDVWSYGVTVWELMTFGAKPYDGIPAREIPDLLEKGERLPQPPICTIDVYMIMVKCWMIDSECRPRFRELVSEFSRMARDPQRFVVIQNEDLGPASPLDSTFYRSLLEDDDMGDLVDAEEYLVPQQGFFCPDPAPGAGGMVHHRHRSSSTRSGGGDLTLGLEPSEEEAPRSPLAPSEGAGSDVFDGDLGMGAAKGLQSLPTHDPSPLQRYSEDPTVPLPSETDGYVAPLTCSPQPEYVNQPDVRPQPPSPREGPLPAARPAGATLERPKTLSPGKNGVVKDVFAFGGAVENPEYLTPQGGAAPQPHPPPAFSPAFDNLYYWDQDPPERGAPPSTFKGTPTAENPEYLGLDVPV
Put plainly: HotSpot radiometric kinase activity assay, ERBB2YVMA. Conditions: biochemical activity, 20 nM ERBB2YVMA, 10 μM 33P-ATP, 2 hours, read-out: HER2 - YVMA IC50. The method, boiled down: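 Radiometric 33P transfer to pEY substrate (0.2 mg/mL, with MnCl2) in pH 7.5 HEPES/MgCl2 buffer with 1% DMSO; kinase 30 nM wtERBB2, 20 nM ERBB2YVMA or 4 nM wtEGFR.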

T1 sequence (P04626 23-1255): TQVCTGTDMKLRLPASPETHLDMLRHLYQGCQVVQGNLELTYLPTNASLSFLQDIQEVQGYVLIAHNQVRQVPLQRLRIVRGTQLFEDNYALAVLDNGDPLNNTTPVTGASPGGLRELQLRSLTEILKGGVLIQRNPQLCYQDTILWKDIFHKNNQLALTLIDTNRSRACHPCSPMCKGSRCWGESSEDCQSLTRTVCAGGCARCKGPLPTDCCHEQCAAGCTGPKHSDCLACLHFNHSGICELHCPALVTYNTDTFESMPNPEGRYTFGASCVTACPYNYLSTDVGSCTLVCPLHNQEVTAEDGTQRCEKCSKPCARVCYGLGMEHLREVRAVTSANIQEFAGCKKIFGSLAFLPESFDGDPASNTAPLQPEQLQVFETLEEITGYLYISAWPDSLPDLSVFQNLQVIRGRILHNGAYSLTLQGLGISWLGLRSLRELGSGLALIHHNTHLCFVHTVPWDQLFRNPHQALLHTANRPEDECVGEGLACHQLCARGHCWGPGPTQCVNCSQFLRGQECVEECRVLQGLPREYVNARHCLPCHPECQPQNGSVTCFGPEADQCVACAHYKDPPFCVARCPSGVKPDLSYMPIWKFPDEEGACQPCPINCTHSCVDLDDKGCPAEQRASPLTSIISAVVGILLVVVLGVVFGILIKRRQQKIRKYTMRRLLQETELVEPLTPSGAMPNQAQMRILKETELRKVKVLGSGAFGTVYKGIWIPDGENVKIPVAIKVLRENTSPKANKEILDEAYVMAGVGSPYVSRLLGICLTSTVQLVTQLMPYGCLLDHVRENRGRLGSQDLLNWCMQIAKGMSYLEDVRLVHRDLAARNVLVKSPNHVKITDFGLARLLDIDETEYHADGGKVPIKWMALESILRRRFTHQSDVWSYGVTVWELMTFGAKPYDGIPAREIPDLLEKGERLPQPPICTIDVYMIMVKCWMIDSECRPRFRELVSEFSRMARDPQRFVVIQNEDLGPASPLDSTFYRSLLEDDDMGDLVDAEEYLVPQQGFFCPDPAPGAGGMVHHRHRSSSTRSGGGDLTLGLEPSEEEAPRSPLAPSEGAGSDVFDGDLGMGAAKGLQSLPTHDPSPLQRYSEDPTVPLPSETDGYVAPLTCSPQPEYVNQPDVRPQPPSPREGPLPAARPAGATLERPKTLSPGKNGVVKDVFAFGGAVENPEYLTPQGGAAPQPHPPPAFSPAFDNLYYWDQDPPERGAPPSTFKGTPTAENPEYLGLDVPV

Consider `C=CC(=O)NC1CCN(C(=O)c2ccn3ncnc(Nc4ccc(Oc5ccn6ncnc6c5)c(C)c4)c23)C1` (stereo not drawn) [Example 4, N-(1-(4-((4-([1,2,4]triazolo[1,5-a]pyridin-7-yloxy)-3-methylphenyl)amino)pyrrolo[2,1-f][1,2,4]triazine-5-carbonyl)pyrrolidin-3-yl)acrylamide], for which the IC50 (commonly the point on the concentration scale where inhibition reaches its midpoint) is less than 200 nM against wtERBB2 (Her2 WT), 1.5 to 5 µM on wtEGFR and less than 200 nM in assay [1]. Moreover, the GI50 was 1.5 to 5 µM at BaF3_EGFRWT cells, less than 200 nM on BaF3_HER2WT cells and less than 0.2 µM at BaF3_HER2YVMA cells.

With `Cc1cc(Nc2ncnn3cnc(C4CCN(C(=O)/C=C/CN(C)C)CC4)c23)ccc1Oc1ccn2ncnc2c1` [Example 88, (E)-1-(4-(4-((4-([1,2,4]triazolo[1,5-a]pyridin-7-yloxy)-3-methylphenyl)amino)imidazo[5,1-f][1,2,4]triazin-5-yl)piperidin-1-yl)-4-(dimethylamino)but-2-en-1-one], the IC50 against wtERBB2 (Her2 WT) lay within 200 to 500 nM; at wtEGFR, 1.5 to 5 µM; in assay [1], 500 to 1500 nM. Further, the GI50 is 1.5 to 5 µM on BaF3_EGFRWT cells, 500 to 1500 nM at BaF3_HER2WT cells and 1.5 to 5 µM at BaF3_HER2YVMA cells.

Take `Cc1cc(Nc2c(C#N)cnn3ccc(C4CN(C(=O)/C=C/CN(C)C)C4)c23)ccc1Oc1ccn2ncnc2c1` [Example 86, (E)-4-((4-([1,2,4]triazolo[1,5-a]pyridin-7-yloxy)-3-methylphenyl)amino)-5-(1-(4-(dimethylamino)-but-2-enoyl)azetidin-3-yl)pyrrolo[1,2-b]pyridazine-3-carbonitrile]: the IC50 was in the range of 1500 to 5000 nM against wtERBB2 (Her2 WT), 1.5 to 5 µM at wtEGFR and 1500 to 5000 nM in assay [1]. The GI50 is 1.5 to 5 µM on BaF3_EGFRWT cells, 1500 to 5000 nM on BaF3_HER2WT cells and more than 5 µM on BaF3_HER2YVMA cells.
